Laboratory results: US9150590B2, “Process for the synthesis of rifaximin and a new pseudo-crystalline form of rifaximin obtained thereby” (Friulchem Spa, priority 2011, dated 2015)

Assay: polymorphic stability on drying or wetting (XRPD, Karl Fischer water content)
Type: physicochemical
Conditions: water content between 0.5% and 7% (Karl Fisher)
Source text: Advantageously, the pseudo-crystalline rifaximin is stable at a water content comprised between 0.5% and 7%. In contrast to the rifaximin of the state of the art, transition from one polymorphic form to another is not observed when the water content varies between 0.5% and 7%. […] Water content is typically assessed according to the Karl Fisher method.
In the processes of the present invention, the absence of salts (methylaminopyridine hydrochloride and ascorbic acid salts) and the final pH of the solution yield a pseudo-crystalline form of rifaximin which is stable at various water contents comprised between 0.5% and 7%. This pseudo-crystalline form is stable upon drying or wetting with water and transition between different polymorphic forms depending on the water content is not observed. The rifaximin obtained by the process of the present invention is polymorphically stable.
Advantageously, the X-ray diffractogramm of the rifaximin according to the present invention is not modified when the water content varies between 0.5% and 7%.
The diffractograms have been carried out by using the SIEMENS D5000 instrument and under the following working conditions: • Radiation used: Kα of Copper (λ=1.5406 Å) • Tension of the generator: KV 35 • Current of the generator: 30 mA • Starting and final angular 2θ value: from 2.0° to 60.0°.

CO[C@H]1/C=C/O[C@@]2(C)Oc3c(C)c(O)c4c(O)c(c5c(nc6cc(C)ccn65)c4c3C2=O)NC(=O)/C(C)=C\C=C\[C@H](C)[C@H](O)[C@@H](C)[C@@H](O)[C@@H](C)[C@H](OC(C)=O)[C@@H]1C [pseudo-crystalline rifaximin, rifaximin]
polymorphic stability (transition to another polymorphic form): stable
